Experimental findings from PubChem BioAssay (NCI) are described below.

Structures are written as SMILES. Where “and” joins values, the source holds several entries; their conditions need not be identical. Equal entries are not always repeated.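 Cultured in 96-well plates, cells were exposed to test compound for 48 hours across five concentrations. The concentration for 50% growth inhibition is given as GI50. TGI: total growth inhibition.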 A value given as a limit tells only on which side of the number the result lay.

Some test systems named below: DMS 273 small cell lung; RXF-631 renal; HOP-18 NSCLC; LXFL 529 NSCLC; DLD-1 colon; MDA-N; M19-MEL melanoma; SNB-78 CNS; XF 498 CNS.
Experiment in all cases: NCI anticancer screen, dose series, 48 h

As for `CN/N=C(/CCN1CCCC1)CC(c1ccccc1)c1c(O)c2ccccc2oc1=O` (centres undefined), the TGI in the assay on DMS 273 small cell lung, with RXF-631 renal, in the assay on HOP-18 NSCLC, in the assay with LXFL 529 NSCLC, in the assay on DLD-1 colon and in the assay on MDA-N was over 100 µM throughout. Besides, the TGI in the assay with M19-MEL melanoma, with SNB-78 CNS and in the assay with XF 498 CNS was over 100 µM each time.

On to `CCC1(O)C(=O)OCc2c1cc1n(c2=O)Cc2cc3ccc(C=O)cc3nc2-1` (centres undefined), for which the TGI in the assay with DMS 273 small cell lung is 3.89 µM; in the assay on RXF-631 renal, 31.7 µM; in the assay with HOP-18 NSCLC, over 100 µM; in the assay with LXFL 529 NSCLC, over 100 µM; with DLD-1 colon it was over 100 µM; in the assay with MDA-N, 23.7 µM and 36.4 µM. Further, the TGI in the assay on M19-MEL melanoma came to 19.8 µM; in the assay on SNB-78 CNS it was 98.2 µM; with XF 498 CNS, 19.2 µM. The GI50 in the assay on MDA-N was 3.9 µM.

As to `CC(=O)OC[C@]12CC[C@H]3[C@@H](C[C@H]4O[C@]45[C@@H](O)C=CC(=O)[C@]35C)[C@@H]1CC[C@@H]2[C@H](C)[C@H]1CC(C)=C(C)C(=O)O1`, the GI50 in the assay on DMS 273 small cell lung is 0.605 µM and 0.42 µM; in the assay on RXF-631 renal, 0.679 µM and 0.987 µM; with HOP-18 NSCLC, 1.05 µM; in the assay on LXFL 529 NSCLC, 0.347 µM and 0.219 µM; with DLD-1 colon, 0.273 µM and 0.129 µM; with M19-MEL melanoma, 0.598 µM and 0.515 µM. The GI50 in the assay with SNB-78 CNS is 0.453 µM and 0.321 µM; in the assay on XF 498 CNS, 0.422 µM and 0.234 µM. The TGI in the assay with DMS 273 small cell lung was 1.51 µM; with RXF-631 renal, 2.74 µM; in the assay on HOP-18 NSCLC, 2.42 µM; in the assay on LXFL 529 NSCLC it was 0.824 µM; in the assay on DLD-1 colon it was 0.649 µM and 0.31 µM; in the assay on M19-MEL melanoma it was 2.32 µM. Further, the TGI was 1.84 µM in the assay on SNB-78 CNS; 0.799 µM and 0.581 µM with XF 498 CNS.

Regarding `C[N+](C)(C)CC1CCCC(C[N+](C)(C)C)C1=O` (centres undefined), the TGI was 10.1 µM in the assay with DMS 273 small cell lung; 47.4 µM with RXF-631 renal; 1 µM in the assay with HOP-18 NSCLC; 0.392 µM in the assay on LXFL 529 NSCLC; 0.386 µM in the assay with DLD-1 colon; 9.44 µM with MDA-N. Besides, the TGI came to 2.33 µM in the assay with M19-MEL melanoma, 5.88 µM with SNB-78 CNS and 0.898 µM in the assay on XF 498 CNS.
